Assay results as given in patent publication US4758597A, “Carenadiol and derivatives” (University Patents, Inc., priority 1987, dated 1988).

Legend:
[1] = system: genetically epilepsy prone rats; test: Audiogenic seizure (AGS) test, anticonvulsant activity; assay type: in vivo, rat; settings: for ED50: Rattus norvegicus, 0.25 h, iv, rats, tested 15 minutes after injection, 95% confidence limits printed in parentheses on the next line, read-out: AGS ED50 (median effective anticonvulsant dose)
Description: (§1) With regard to the potential use of this family of compounds in the treatment of epilepsy, (+)-Carenadiol was evaluated in the audiogenic seizure (AGS-susceptible) rat model of eilepsy to assess its anticonvulsant activity, and the rat rotorod (ROT) paadigm was used to assess differential neurotoxicity (i.e., reflecting mainly sedation and/or incoordination), of this family of compounds.
(§2) For AGS tests, male and female, 150-225 gm, genetically epilepsy prone rats were used. For ROT tests, male and female, 150-225 gm. rats were used. CBD analogs (suspended in a vehicle of 10% polysorbate 80 and 90% distilled water) were injected intravenously and rats were tested 15 minutes later (a peak-effect time for both tests). In the AGS test, responses to sound were recorded as the presence or absence of seizure (i.e., generalized clonus or clonus and generalized flexion). In the ROT test, effects were measured as the ability or inability (i.e., neurotoxicity) of trained rats to remain on a revolving drum (rotorod) for 60 seconds.
(§3) Separate groups of 10-15 rats were used for each doses of drug tested and, typically, 3-6 doses of each analog were used for each AGS and ROT test. For appropriate dose-response data, median effective anticonvulsant (ED50) and neurotoxic (TD50) doses and regression line parameters were calculated by computer-assisted probit analysis. Subsequent calculations of 95% confidence limits (CL) and comparisons between slopes and median doses (i.e., ED50 and TD50 potency comparisons) were carried out using the method of Litchfield and Wilcoxon [J. Pharmacol Exp Ther 96:99-133(1949)].Protective indexes (PI =ROT-TD50/AGS-ED50) also were calculated.

[2] = as above; assay type: in vivo, rat; settings: rat, in vivo; ratio of ROT TD50 to AGS ED50, iv, rats; read-out: PI (protective index = ROT-TD50/AGS-ED50)
Description: as §1, §2, §3

[3] = Rat rotorod (ROT) test, differential neurotoxicity; assay type: in vivo; settings: iv, rats, tested 15 minutes after injection, 95% confidence limits printed in parentheses on the next line, read-out: ROT TD50 (median neurotoxic dose)
Description: as §1, §2, §3

laboratory animals = settings: cited from earlier work
[4] = in man; cited from earlier work

For CCCCCc1cc(O)c(C2C=C(C)CC3C2C3(C)C)c(O)c1 (single isomer, unassigned; (+)) [(+)-5a], the ED50 [1] was 18.1 mg/kg, the “activity among the compounds synthesized and tested” value ([1]; comparison in words) was “the most active” and the selectivity ratio at 0.25 h [2] was 5.5. The TD50 at 0.25 h [3] was 99.8 mg/kg.
For CCCCCCC(C)(C)c1cc(O)c(C2C=C(C)CC3C2C3(C)C)c(O)c1 (single isomer, unassigned; (+)) [(+)-5b], the ED50 [1] was 3.4 mg/kg, the selectivity ratio at 0.25 h [2] was 1.1 and the TD50 at 0.25 h [3] was 3.7 mg/kg.
In the case of C=C(C)[C@@H]1CCC(C)=C[C@H]1c1c(O)cc(CCCCC)cc1O [(-)-CBD, (-)-Cannabidiol], the “activity in models that predict cannabimimetic activity” value (laboratory animals) is given as “inactive”, the antidystonic activity [4] is given as “possibly antidystonic activity” and the antiepileptic efficacy [4] is given as “antiepileptic efficacy”. For the same compound, the cannabimimetic activity [4] was “no cannabimimetic activity” and the side effects [4] was “no recognized and undesired side effects”.
NC(=O)N1c2ccccc2C=Cc2ccccc21 [Carbamazepine] gave an ED50 [1] of 12.8 mg/kg, a selectivity ratio at 0.25 h [2] of 2.7 and a TD50 at 0.25 h [3] of 33.9 mg/kg.
CCC1(c2ccccc2)C(=O)NC(=O)NC1=O [Phenobarbital] showed an ED50 [1] of 10.8 mg/kg, a selectivity ratio at 0.25 h [2] of 2.7 and a TD50 at 0.25 h [3] of 28.9 mg/kg.
O=C1NC(=O)C(c2ccccc2)(c2ccccc2)N1 [Phenytoin] gave an ED50 [1] of 14.7 mg/kg, a selectivity ratio at 0.25 h [2] of 1.6 and a TD50 at 0.25 h [3] of 23.9 mg/kg.
